Reference: patent US20230303972A1, “IN VITRO GENETIC DISEASE MODEL CELL AND METHOD FOR PRODUCING THE SAME” (Ricoh Company, Ltd., priority 2022, published 2023)

Columns and labels:
[1] = test system: iPS cell-derived differentiated neurocyte cocultured with human primary astrocyte; assay: Neurite morphology of iPS cell-derived neurocytes with hMECP2 knockdown, coculture with human primary astrocytes (phase-contrast observation, BDNF rescue); type: cell-based; details: observed Day 11 to Day 42
Protocol: (§1) Commercially available iPS-cell-derived neurocytes (#EX-SeV-CW50065, Elixirgen Scientific, Inc.) and commercially available human primary astrocytes (#N7805-100, Thermo Fisher Scientific Inc.) were thawed and used to prepare cell suspensions with culture media at 1×10^4 cells/well and 2.5×10^3 cells/well respectively. After the Laminine solution was removed, the suspension was seeded at 50 μL/well, and cocultured. For single culture, 1×10^4 cells/well neurocytes were seeded at 50 μL/well. The culture continued under 5% CO2 at 37° C. in the incubator for 6 weeks. Half the amount of the culture medium was replaced once in 3 to 4 days. The culture medium used was a culture medium specified by Elixirgen Scientific, Inc. for the period of 1 week after the seeding. Then, the culture medium used was Neurobasal Plus supplemented with 2% B-27 Plus, 1% GlutaMAX, 200 μM ascorbic acid, 10% Neurocyte culture medium, and 1% penicillin-streptomycin.
(§2) At 4 days after the cell seeding, virus solutions for expression of the respective shRNAs were added under MOI 0.1 and MOI 1, and allowed to cause infection. MOI was prepared in accordance with only the number of neurocytes. At 7 hours after the infection, the whole amount of culture medium was replaced. To the culture medium in the wells to be rescued, BDNF, which is known for the therapeutic effect for Rett syndrome, was added at 50 ng/mL. […]

[2] = test system: iPS cell-derived differentiated neurocyte alone; assay: Neurite morphology of iPS cell-derived neurocytes infected with hMECP2-shRNA lentivirus, single culture; type: cell-based, human; details: FIG. 3
Protocol: as §1, §2

[3] = test system: hMECP2; assay: Ratio of neurocytes with MECP2 knocked down versus amount of lentivirus infection (mCherry fluorescence); type: cell-based, human; details: coculture
Source text: As a lentivirus vector for transfection, an hMECP2-shRNA lentivirus vector plasmid was used. This plasmid vector contains, downstream of a U6 promoter, a base sequence of SEQ ID NO: 3 ([…]) encoding an shRNA complementary to the 3′ UTR of the hMECP2 gene. Additionally, as a control lentivirus vector, an NC-shRNA lentivirus vector plasmid was used. This plasmid vector contains, downstream of a U6 promoter, a non-mammalian shRNA having a base sequence of SEQ ID NO: 4 ([…]).
At 4 days after the cell seeding, virus solutions for expression of the respective shRNAs were added under MOI 0.1 and MOI 1, and allowed to cause infection. MOI was prepared in accordance with only the number of neurocytes. At 7 hours after the infection, the whole amount of culture medium was replaced. To the culture medium in the wells to be rescued, BDNF, which is known for the therapeutic effect for Rett syndrome, was added at 50 ng/mL.

Molecule: hMECP2-shRNA: shRNA complementary to the 3′ UTR of the hMECP2 gene, encoded by SEQ ID NO: 3, expressed from a lentivirus vector (DNA GGGTAGGGCTCTGACAAAGCTTCCCGATTAACTGAAATAAA)
- Knockdown effect on hMECP2 evaluated by number of neurites and length of the neurite ([1]; coculture of neurocyte and human primary astrocyte, FIG. 1 a to f): chronological decrease in the number of neurites and decrease in the length of the neurite
- Knockdown effect on hMECP2 evaluated by number of neurites and length of the neurite [2]: neither a decrease in the number of neurites nor a change in the length of the neurite
- Ratio of neurocytes with MECP2 knocked down ([3]; infection with a large amount of lentivirus, FIG. 5): in substantially all the neurocytes
- Ratio of neurocytes with MECP2 knocked down ([3]; infection with a small amount of lentivirus, FIG. 4): in a part of the neurocytes

B1: BDNF: BDNF, which is known for the therapeutic effect for Rett syndrome, added to culture medium (protein, UniProt P23560 19-247, looked up)
Neurotrophic factor BDNF …: APMKEANIRGQGGLAYPGVRTHGTLESVNGPKAGSRGLTSLADTFEHVIEELLDEDQKVRPNEENNKDADLYTSRVMLSSQVPLEPPLLFLLEEYKNYLDAANMSMRVRRHSDPARRGELSVCDSISEWVTAADKKTAVDMSGGTVTVLEKVPVSKGQLKQYFYETKCNPMGYTKEGCRGIDKRHWNSQCRTTQSYVRALTMDSKKRIGWRFIRIDTSCVCTLTIKRGR
- Rescue of the hMECP2 knockdown effect (decrease in number and length of neurites) ([1]; BDNF 50 ng/mL in culture medium, hMECP2-shRNA lentivirus-infected neurocytes cocultured with astrocytes, FIG. 1 g to l): improved
